The values below come from PubChem BioAssay (NCI).

Several values for one entry are separate records, joined by “and”; a condition that tells them apart may be missing. Identical values can stand only once.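 In this assay, cells in 96-well plates receive the compound at five concentrations for 48 hours. Endpoints are linearly interpolated between the surrounding concentrations. GI50: concentration for 50% inhibition of growth. TGI: total growth inhibition.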

Test systems include HOP-62 NSCLC; LOX IMVI melanoma; RPMI-8226 leukemia; UACC-257 melanoma; NCI-H23 lung; OVCAR-3 ovarian; SF-268 CNS; SK-OV-3 ovarian; SNB-19 CNS; MCF7 breast.
Common to all, as to test: inhibition of tumour cell growth, NCI panel, 48 h

On to `COc1cc(Cl)cc(-c2nn(C(=O)NCCN3CCOCC3)cc2-c2ccncc2)c1`, for which the GI50 in the assay on HOP-62 NSCLC was 6.03 µM; in the assay with LOX IMVI melanoma, 5.14 µM; in the assay with RPMI-8226 leukemia, 7.38 µM; in the assay on UACC-257 melanoma, 18.4 µM; in the assay on NCI-H23 lung it was 11.5 µM; in the assay on OVCAR-3 ovarian, 2.41 µM. The GI50 in the assay with SF-268 CNS was 6.69 µM; with SK-OV-3 ovarian, 3.75 µM; in the assay with SNB-19 CNS, 7.58 µM; in the assay with MCF7 breast, 3.54 µM. Moreover, the TGI in the assay with HOP-62 NSCLC is 63.6 µM; in the assay on LOX IMVI melanoma, 69.9 µM; with RPMI-8226 leukemia, more than 100 µM; in the assay on UACC-257 melanoma, more than 100 µM; in the assay on NCI-H23 lung, more than 100 µM; in the assay on OVCAR-3 ovarian, 7.11 µM. Moreover, the TGI in the assay on SF-268 CNS is more than 100 µM; with SK-OV-3 ovarian it was 19.7 µM; in the assay on SNB-19 CNS, more than 100 µM; in the assay with MCF7 breast, more than 100 µM.
With `COc1cc(C2c3cc4c(cc3[C@@H](Nc3ccc(C#N)cc3)C3COC(=O)[C@H]23)OCO4)cc(OC)c1O` (some centres not stated), the GI50 in the assay on HOP-62 NSCLC is 0.194 µM and 0.234 µM; with RPMI-8226 leukemia it was 0.869 µM and 1.33 µM; in the assay on NCI-H23 lung, 0.753 µM and 0.532 µM; with OVCAR-3 ovarian, 1.81 µM and 2.14 µM; in the assay with SF-268 CNS, 1.4 µM; with SK-OV-3 ovarian, 3.29 µM and 1.34 µM. For the same compound, the GI50 is 0.314 µM and 0.768 µM with SNB-19 CNS; 0.329 µM and 0.188 µM in the assay on MCF7 breast. For the same compound, the TGI with HOP-62 NSCLC is 2.82 µM and 0.59 µM and 2.57 µM; in the assay with LOX IMVI melanoma, 9.52 µM; with RPMI-8226 leukemia, 1.42 µM and 3.87 µM and 4.73 µM; in the assay with UACC-257 melanoma, 33.3 µM; with NCI-H23 lung, 2.53 µM and 3.67 µM and 4.36 µM; with OVCAR-3 ovarian, 50 µM and 5.33 µM and 5.32 µM. Further, the TGI in the assay with SF-268 CNS is 42.5 µM and > 100 µM; with SK-OV-3 ovarian, 48.8 µM and 11.3 µM and > 100 µM; in the assay on MCF7 breast, 40.4 µM and 75 µM and > 100 µM.
Consider `O=CNc1c(Cl)cc2c(c1Cl)Cc1cc([N+](=O)[O-])ccc1-2`, for which the GI50 is 5.76 µM with HOP-62 NSCLC; 4.59 µM in the assay with LOX IMVI melanoma; 2.59 µM with RPMI-8226 leukemia; 64 µM with UACC-257 melanoma; 5.56 µM in the assay with NCI-H23 lung; 1.34 µM in the assay with OVCAR-3 ovarian. Moreover, the GI50 in the assay on SF-268 CNS was 6.63 µM; with SK-OV-3 ovarian, 9.92 µM; in the assay on SNB-19 CNS, 16.5 µM; in the assay on MCF7 breast, 0.34 µM. For the same compound, the TGI in the assay on HOP-62 NSCLC was more than 67.5 µM; in the assay on LOX IMVI melanoma, more than 54.7 µM; in the assay on RPMI-8226 leukemia, more than 100 µM; with UACC-257 melanoma it was more than 100 µM; with NCI-H23 lung it was more than 66.8 µM; in the assay with OVCAR-3 ovarian, 8.87 µM. The TGI in the assay on SF-268 CNS was more than 100 µM; in the assay on SK-OV-3 ovarian, 41.5 µM; with SNB-19 CNS, more than 100 µM; with MCF7 breast it was more than 100 µM.
For the compound `CCCC[C@H](NC(=O)[C@H]1CCCN1C)C(=O)N(C)[C@H](C[C@@H](OC(C)=O)c1nc(C(=O)N[C@@H](Cc2ccccc2)C[C@H](C)C(=O)OCC)cs1)C(C)C`, the GI50 is 0.0439 µM with HOP-62 NSCLC; 0.0173 µM with LOX IMVI melanoma; 0.00399 µM in the assay on RPMI-8226 leukemia; 7.81 µM in the assay with UACC-257 melanoma; 0.0594 µM with NCI-H23 lung; 0.0083 µM with OVCAR-3 ovarian. Besides, the GI50 was 0.0217 µM in the assay on SF-268 CNS, 0.0969 µM with SK-OV-3 ovarian, 0.01 µM in the assay with SNB-19 CNS and less than 0.00333 µM in the assay with MCF7 breast. In addition, the TGI in the assay on HOP-62 NSCLC is more than 33.3 µM; in the assay with LOX IMVI melanoma, 9.99 µM; in the assay on RPMI-8226 leukemia it was 4.84 µM; in the assay on UACC-257 melanoma it was more than 33.3 µM; in the assay with NCI-H23 lung, more than 33.3 µM; with OVCAR-3 ovarian, 6.38 µM. Further, the TGI in the assay on SF-268 CNS is 25.2 µM; in the assay on SK-OV-3 ovarian, more than 33.3 µM; in the assay with SNB-19 CNS, more than 33.3 µM; in the assay with MCF7 breast it was more than 33.3 µM.
As for `O=C1OC(=O)C(c2c[nH]c3ccccc23)=C1c1c[nH]c2ccccc12`, the GI50 in the assay with HOP-62 NSCLC, in the assay with LOX IMVI melanoma, in the assay with RPMI-8226 leukemia, in the assay with UACC-257 melanoma, in the assay with NCI-H23 lung and with OVCAR-3 ovarian was more than 25 µM in each case. Also, the GI50 with SF-268 CNS, in the assay on SK-OV-3 ovarian, in the assay with SNB-19 CNS and in the assay with MCF7 breast was more than 25 µM each time. For the same compound, the TGI with HOP-62 NSCLC, with LOX IMVI melanoma, with RPMI-8226 leukemia, in the assay with UACC-257 melanoma, in the assay with NCI-H23 lung and with OVCAR-3 ovarian was more than 25 µM in each case. For the same compound, the TGI in the assay with SF-268 CNS, in the assay with SK-OV-3 ovarian, in the assay on SNB-19 CNS and with MCF7 breast was more than 25 µM throughout.
With `CCN(CC)c1ccc(C(=C2C=CC(=[N+](CC)Cc3cccc(S(=O)(=O)O)c3)C=C2)c2ccc(N(CC)Cc3cccc(S(=O)(=O)O)c3)cc2)cc1`, the GI50 was 4.59 µM in the assay on HOP-62 NSCLC; 4.84 µM with LOX IMVI melanoma; 3.32 µM with RPMI-8226 leukemia; 21 µM with UACC-257 melanoma; 5.14 µM with NCI-H23 lung; 5.21 µM with OVCAR-3 ovarian. The GI50 in the assay on SF-268 CNS is 4.12 µM; in the assay with SK-OV-3 ovarian it was 5.04 µM; with SNB-19 CNS it was 14.2 µM; in the assay with MCF7 breast, 3.66 µM. The TGI with HOP-62 NSCLC was more than 96.6 µM; in the assay on LOX IMVI melanoma, more than 100 µM; with RPMI-8226 leukemia, more than 51.1 µM; in the assay on UACC-257 melanoma, more than 100 µM; in the assay with NCI-H23 lung, 80.2 µM; in the assay on OVCAR-3 ovarian, 37.4 µM. Further, the TGI is more than 79.4 µM in the assay on SF-268 CNS, 27.1 µM in the assay on SK-OV-3 ovarian, more than 100 µM with SNB-19 CNS and more than 100 µM with MCF7 breast.
